Reference: patent US12625427B2, “Naphthalimide sulfonate derivative, and photoacid generator and photoresist composition each comprising same” (SAMYANG CORPORATION, priority 2020, dated 2026)

Columns and labels:
[1] = Measurement of thermal stability by thermogravimetric analyzer; type: physicochemical
Source text: If a photoacid generator is thermally stable in a photoresist preparation process, a very good effect in terms of stability can be expected.

[2] = Measurement of solubility of photoacid generators in photoresist solvents; type: physicochemical; details: for Solubility (w/v %) PGMEA: solvent PGMEA; for Solubility (w/v %) Cyclohexane: solvent cyclohexane
Source text: In preparing a photoresist composition, solubility of a photoacid generator is very important.

| Compound | Temperature at which 5% weight loss occurred [1] [°C] | Solubility (w/v %) PGMEA [2] [w/v %] | Solubility (w/v %) Cyclohexane [2] [w/v %] |
| --- | --- | --- | --- |
| CCCCOC(CCC)c1ccc2c3c(cccc13)C(=O)N(OS(=O)(=O)C(F)(F)F)C2=O (stereo not shown) [Compound 8] | 232 | 50.0 | 62.3 |
| CCCC(OC)c1ccc2c3c(cccc13)C(=O)N(OS(=O)(=O)C(F)(F)F)C2=O (stereo not shown) [Compound 11] | 230 |  |  |
| CCCC(OCCOC)c1ccc2c3c(cccc13)C(=O)N(OS(=O)(=O)C(F)(F)F)C2=O (stereo not shown) [Compound 19] | 234 | 60.0 | 64.1 |
| CCCCOCCOC(CCC)c1ccc2c3c(cccc13)C(=O)N(OS(=O)(=O)C(F)(F)F)C2=O (stereo not shown) [Compound 20] | 235 | 45.0 | 54.1 |
| O=C1c2cccc3cccc(c23)C(=O)N1OS(=O)(=O)C(F)(F)F [Formula II, reference compound] | 223 | 1.7 | 5.8 |
